Patent US10660789B2, “1,4-dihydropyridine derivatives with HSP modulating activity” (Richter Gedeon NYRT., priority 2011, dated 2020)
Where a name gives a salt, the structure may show the parent alone.

How the values were obtained:
[1] = tested on: APP mutant transgenic mice; assay: Morris water maze, wild and APP mutant transgenic mice; type: in vivo, mouse; conditions: daily i.p. for 6 months, FIG. 6
Description: The neuro- and memoryprotective effect of the compounds of invention was studied on wild and APP mutant transgenic mice. These mice express high levels of mutant beta-amyloid and, with increasing age, develop both substantial amyloid plaque load and memory deficits. Spatial memory disfunction [with the Morris water maze (MWM) behavioural task assay] and histological assays (cell density, astroglial response, tau-pathology, amyloid-histology and dendritic spine density) in the hippocampal (HC) region (key area for the memory-function) were performed.
The Morris water navigation task is a behavioral procedure widely used in behavioral neuroscience to study spatial learning and memory. The classic measure of learning is latency, which is the time it takes to find the platform after repeating the task daily.
16 adult female APP+ transgenic and 16 adult female wild type mice were the subjects of the experiment. The animals were housed in sterile mouse cages with a natural dark/light cycle, they had free access to food and water throughout the experiment. After arrival, the mice were daily gently handled for a week. […]
Spatial learning and memory were assessed in a circular pool (diameter: 130 cm, height: 60 cm), filled with water (23±1° C.) and made opaque with milk. […]
The data were recorded and evaluated automatically by using a video tracking system. […]

[2] = tested on: B6SJL-Tg(SOD1*G93A)1Gur/J mice; assay: Lifespan of G93A ALS mouse strain; type: in vivo
Description: Amyotrophic lateral sclerosis (ALS) is a fatal neurodegenerative disease, caused by the death of motor neurons mainly in the spinal cord. The main form of familiar (genetic or inherited) ALS is caused by the mutation of superoxide dismutase 1 (SOD1) gene, which results in […] amyloid-like aggregations and progressive neuronal degenerations. […] The “golden standard” of preclinical ALS drug tests is the use of a specific transgenic mouse strain, which harbors high-copy number of human mutated SOD1 gene, having a mutation of G93A.
The effect of Ex. 23 was investigated on lifespan of G93A ALS mouse strain. A total of 33 transgenic female mice (B6SJL-Tg(SOD1*G93A)1Gur/J) were bred from 4 breeding pairs. The breeding pairs were purchased from the Jackson Laboratory (jax.org). The mice were individually housed in an IVC rack. Standard food pellets and water was available ad libidum. Body weight was monitored daily. The compound Ex. 23 was freshly dissolved in saline every day, and was administered daily intraperitoneally at the onset of symptoms in 10 mg/bwkg. Symptom onset was determined according to ALS-TDI neurological score. Mice treated with Ex. 23 lived longer (FIG. 10) than untreated mice (mean survival 143±3 days; n=8 and 132±3 days; n=25, respectively).

COC(=O)C1=C(CCN(C)C)N(C)C(CCN(C)C)=C(C(=O)OC)C1c1ccc(C(F)(F)F)cc1 [Example 23, Dimethyl 4-(4-trifuoromethylphenyl)-2,6-bis-(2-dimethylaminoethyl)-1-methyl-1,4-dihydropyridine-3,5-dicarboxylate dihydrochloride]
spatial memory, time to find the hidden platform in Morris water maze [1]: enhances the ability of both the wild type and the memory deficit mutant mice to find the hidden platform
mean survival ([2]; 10 mg/bwkg daily i.p. from onset of symptoms, n=8, FIG. 10): 143 ± 3 days
In vivo efficacy ([2]; model in which efficacy was shown): ALS
